These results are taken from publication PMC3172300, “Modulation of Catalytic Activity in Multi-Domain Protein Tyrosine Phosphatases” (PLoS ONE, 2011).

For orientation: Vmax means the rate approached at saturating substrate.

Where “and” joins values, the source holds several entries; their conditions need not be identical. Equal entries are not always repeated. Where two headings read alike, the source gives them in different places. Square brackets hold non-standard residues; d marks the D form. Peptide text beside a SMILES is read from it. pY = N[C@@H](Cc1ccc(OP(=O)(O)O)cc1)C(=O)O

For test [1], the target named is T1, DLAR D1 D2HSS (Drosophila melanogaster, UniProt P16621, C1961S).
T1 construct: DLAR 1448-2029; His tag (pET-15b or pET-22b); made in house; host or cells: E. coli BL21(DE3)
T1 sequence (P16621 1448-2029 C1961S): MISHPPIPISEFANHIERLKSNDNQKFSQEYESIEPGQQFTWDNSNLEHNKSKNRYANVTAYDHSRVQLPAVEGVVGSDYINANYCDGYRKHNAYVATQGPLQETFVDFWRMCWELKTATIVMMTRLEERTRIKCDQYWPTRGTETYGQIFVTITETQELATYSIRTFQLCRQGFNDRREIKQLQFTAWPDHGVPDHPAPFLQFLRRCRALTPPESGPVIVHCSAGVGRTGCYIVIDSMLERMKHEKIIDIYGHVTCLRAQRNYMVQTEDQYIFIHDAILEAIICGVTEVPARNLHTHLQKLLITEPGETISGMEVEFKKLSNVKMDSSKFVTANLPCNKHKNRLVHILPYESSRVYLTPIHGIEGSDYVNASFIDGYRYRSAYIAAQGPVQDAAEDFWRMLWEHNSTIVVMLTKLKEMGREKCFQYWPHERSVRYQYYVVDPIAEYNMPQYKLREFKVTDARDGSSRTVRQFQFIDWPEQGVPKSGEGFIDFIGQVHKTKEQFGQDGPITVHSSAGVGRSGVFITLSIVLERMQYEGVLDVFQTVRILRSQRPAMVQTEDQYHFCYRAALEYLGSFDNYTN
The test is described as follows: Surface Plasmon Resonance peptide binding, DLAR D1 D2HSS. To be noted: two-site model, read-out: ka. Here is the method: The binding of phosphotyrosine peptides to the PTP domains was studied by Surface Plasmon Resonance on a Biacore-2000 instrument (BIAcore, AB). All experiments were conducted at 25°C. DLAR PTP domains were immobilized onto carboxylated dextran CM5 chips (BIAcore AB) using the standard amine coupling procedure as recommended by the manufacturer. Binding and kinetic assays were performed in 10 mM HEPES, pH 8.0, 150 mM NaCl, 10 mM DTT and 3 mM EDTA at a flow rate of 5 µL/min. The peptides were used at concentrations ranging from 50–700 µM. Dissociation was initiated by replacing the analyte with buffer. The association and dissociation curves were monitored for 600 sec. Sensograms were analyzed with BIA-evaluation software version 2 (BIAcore AB). Sensograms for DLAR D1D2, DLAR D1HSSD2 and DLAR D1D2HSS were fitted to two-site binding equations. DLAR D1 and DLAR D2 sensograms were fitted using a single-site binding model.

Test [2] has as its target T2, PTP99A D1 (Drosophila melanogaster, UniProt P35832).
T2 sequence (P35832 450-756): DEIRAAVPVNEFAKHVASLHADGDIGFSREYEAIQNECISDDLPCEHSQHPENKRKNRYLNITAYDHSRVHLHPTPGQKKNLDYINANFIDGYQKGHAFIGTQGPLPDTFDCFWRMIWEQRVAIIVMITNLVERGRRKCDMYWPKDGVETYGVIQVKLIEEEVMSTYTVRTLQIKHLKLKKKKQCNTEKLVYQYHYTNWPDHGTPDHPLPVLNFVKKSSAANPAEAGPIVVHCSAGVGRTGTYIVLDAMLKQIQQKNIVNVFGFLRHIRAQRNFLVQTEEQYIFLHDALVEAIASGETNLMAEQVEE
The test is described as follows: Phosphatase assay using pNPP, PTP99A D1. The settings on record: CGH buffer pH 6.5, 100 mM NaCl, 2 mM DTT. The class given is biochemical. On the set-up: PTP99A 450-756; His tag (pET-15b or pET-22b); made in house; host or cells: E. coli BL21(DE3). Here is the method: (§1) Phosphatase activity of the recombinant PTP domains was determined by using para-Nitrophenylphosphate (pNPP), a small molecule generic substrate, as well as phosphotyrosine containing peptides. The pNPP assay was performed as reported previously, with a modification in the buffer composition (25 mM Citrate, Glycine and HEPES (CGH), pH 6.5, 100 mM NaCl and 2 mM DTT). Phosphatase activity with the phosphotyrosine peptides was ascertained by the malachite green reaction as described for PTPs previously. Briefly, the reaction mixture comprised of 0.01 µM protein incubated with increasing concentrations of different peptides in 25 mM citrate buffer pH 6.0, 100 mM NaCl and 2 mM DTT for 15 min at 25°C. The reaction was stopped by the addition of the Biomol Green reagent (Enzo Life Sciences) and the colour developed after 20 min was quantified at 650 nm. For all the assays, kinetic constants for the steady state catalysis were obtained by fitting the reaction curves to the Michaelis-Menten equation using the nonlinear regression module of Sigma plot software (Systat Software, Inc.).
The tandem PTP domains of PTP99A (PTP99A D1D2) and DLAR (DLAR D1D2) , the individual PTP domains (D1 and D2) as well as the active site mutants were expressed in E. coli and were purified using the protocols described earlier (Figure 1a, Figure S1a, b & c). […]

Test [3] has as its system D958C mutant of the D2 domain of PTP99A. The test is described as follows: Phosphatase assay using pNPP, PTP99A D2 D958C mutant. In kind it is biochemical, Drosophila melanogaster. To be noted: D958C point mutant. The protocol: as §1
Supplementary file pone.0024766.s005.tif: Figure S5 Characterization of the D958C mutant of the D2 domain of PTP99A. A: Size exclusion profile of wild-type and D958C mutant of the D2 domain of PTP99A. B: Circular Dichroism (CD) spectra of the wild type and D958C mutant. […]

In test [4] the test system is PTP99A D1 active site cysteine to serine mutant. The test is described as follows: Phosphatase assay using pNPP, PTP99A D1 active site Cys to Ser mutant. To be noted: active site cysteine to serine in D1. The class given is biochemical, Drosophila melanogaster. The source says:
Cosmids containing the genes encoding RPTPs DLAR and PTP99A were a kind gift from Prof. Kai Zinn (Caltech). The PTP domains of PTP99A and DLAR were PCR amplified and ligated between the NheI and XhoI restriction sites of the bacterial expression vectors pET-15b and pET-22b. The active site mutants (with the nucleophilic cysteines in the PTP domains of DLAR and PTP99A mutated to serines) were obtained by using a single primer approach. An XbaI site was incorporated in the primers to aid screening of mutants. All clones were confirmed by sequencing (Macrogen Inc.). The details of the expression constructs are compiled in Table S1 and Figure 1a.
Phosphatase activity of the recombinant PTP domains was determined by using para-Nitrophenylphosphate (pNPP), a small molecule generic substrate, as well as phosphotyrosine containing peptides. The pNPP assay was performed as reported previously, with a modification in the buffer composition (25 mM Citrate, Glycine and HEPES (CGH), pH 6.5, 100 mM NaCl and 2 mM DTT). Phosphatase activity with the phosphotyrosine peptides was ascertained by the malachite green reaction as described for PTPs previously. […] The reaction was stopped by the addition of the Biomol Green reagent (Enzo Life Sciences) and the colour developed after 20 min was quantified at 650 nm. […]

For the molecule `CC(C)C[C@H](NC(=O)[C@H](C)NC(=O)CNC(=O)[C@H](Cc1ccc(OP(=O)(O)O)cc1)NC(=O)[C@H](CC(=O)O)NC(=O)[C@@H]1CCCN1C(=O)[C@H](CCC(=O)O)NC(=O)[C@H](C)NC(=O)[C@@H](N)[C@@H](C)O)C(=O)N[C@@H](Cc1ccc(O)cc1)C(=O)N[C@@H](CCC(=O)O)C(=O)O` [Cuticle peptide] (H-TAEPD[pY]GALYE-OH), the kon came out at 51.7 ± 0.61 M⁻¹ s⁻¹ in test [1] (pH 8, SPR Biacore-2000, 25°C, 10 mM HEPES pH 8.0, 150 mM NaCl, 10 mM DTT, 3 mM EDTA, peptides 50–700 µM, first binding site) and 1.37 ± 0.4 M⁻¹ s⁻¹ in test [1] (pH 8, SPR, 25°C, pH 8.0, second binding site).
In test [2], `O=[N+]([O-])c1ccc(OP(=O)(O)O)cc1` [pNPP, para-Nitrophenylphosphate] returned a Kcat of 0.14 ± 0.01 s⁻¹. Further, the Vmax in test [2] (Michaelis-Menten fit) was 0.22 µmol/min/mg and 0.22 ± 0.01 µmol/min/mg. Besides, in test [3], the phosphatase activity entry was “catalytically inactive”. The PTPase activity entry in test [4] is “inactive enzyme”.
